Laboratory results taken from ChEMBL document CHEMBL2163275, “The lipogenesis pathway as a cancer target” (J Med Chem, 2011).

Columns and labels:
Fatty acid synthase [1] = target: T1, Fatty acid synthase (Homo sapiens, UniProt P49327); experiment: Inhibition of FASN in human SKBR3 cells; format: cell-based, SK-BR-3
Fatty acid synthase [2] = target: T1, Fatty acid synthase; experiment: Reversible inhibition of human recombinant FASN ketoreductase site
Acetyl-CoA carboxylase 2 = Acetyl-CoA carboxylase 2 (Homo sapiens, UniProt O00763); experiment: Inhibition of human ACC2 using acetyl coA as substrate and [14C]NaHCO3 incubated for 5 mins prior to substrate addition by liquid scintillation counting
Acetyl-CoA carboxylase 1 = Acetyl-CoA carboxylase 1 (Homo sapiens, UniProt Q13085); experiment: Inhibition of human ACC1 using acetyl coA as substrate and [14C]NaHCO3 incubated for 5 mins prior to substrate addition by liquid scintillation counting
Fatty acid synthase [3] = target: T1, Fatty acid synthase; experiment: Antagonist activity at recombinant FASN thioesterase domain by fluorogenic assay; format: functional
ATP-citrate synthase [4] = target: T2, ATP-citrate synthase (Rattus norvegicus, UniProt P16638); experiment: Competitive inhibition of rat liver ACLY using CoA as substrate by spectrophotometric analysis
T2 sequence (P16638 whole entry): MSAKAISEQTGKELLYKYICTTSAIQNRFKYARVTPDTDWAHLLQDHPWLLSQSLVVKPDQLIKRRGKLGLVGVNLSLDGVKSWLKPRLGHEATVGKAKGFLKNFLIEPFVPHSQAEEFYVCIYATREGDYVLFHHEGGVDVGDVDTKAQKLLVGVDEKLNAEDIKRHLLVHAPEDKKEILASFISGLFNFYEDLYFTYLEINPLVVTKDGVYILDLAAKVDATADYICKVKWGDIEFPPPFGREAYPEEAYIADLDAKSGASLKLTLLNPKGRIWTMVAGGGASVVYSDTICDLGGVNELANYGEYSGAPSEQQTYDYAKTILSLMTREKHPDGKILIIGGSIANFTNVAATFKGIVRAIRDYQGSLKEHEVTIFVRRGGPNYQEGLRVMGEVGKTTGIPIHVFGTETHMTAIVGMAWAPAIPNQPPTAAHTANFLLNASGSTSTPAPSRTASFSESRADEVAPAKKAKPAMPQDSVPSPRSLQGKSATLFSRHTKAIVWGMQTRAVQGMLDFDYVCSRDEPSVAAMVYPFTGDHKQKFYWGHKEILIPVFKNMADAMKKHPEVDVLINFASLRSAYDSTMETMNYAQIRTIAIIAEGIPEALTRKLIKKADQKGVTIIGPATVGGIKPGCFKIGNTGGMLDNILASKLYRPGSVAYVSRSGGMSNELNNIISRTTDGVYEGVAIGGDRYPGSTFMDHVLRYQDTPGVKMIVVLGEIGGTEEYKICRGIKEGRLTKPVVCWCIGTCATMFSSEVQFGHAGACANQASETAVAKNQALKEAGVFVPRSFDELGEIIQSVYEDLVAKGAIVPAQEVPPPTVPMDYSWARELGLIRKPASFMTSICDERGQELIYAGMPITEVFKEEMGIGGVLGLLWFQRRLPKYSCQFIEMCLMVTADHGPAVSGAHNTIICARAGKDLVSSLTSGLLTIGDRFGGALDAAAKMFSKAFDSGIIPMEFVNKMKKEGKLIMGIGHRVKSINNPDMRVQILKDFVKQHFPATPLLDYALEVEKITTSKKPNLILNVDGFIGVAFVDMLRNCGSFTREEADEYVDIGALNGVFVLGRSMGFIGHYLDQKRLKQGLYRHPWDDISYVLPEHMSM

[5] = Inhibition of rat liver ACC
ATP-citrate synthase [6] = target: T2, ATP-citrate synthase; experiment: Competitive inhibition of rat liver ACLY using citrate as substrate by spectrophotometric analysis
Fatty acid synthase [7] = target: T3, Fatty acid synthase (Gallus gallus, UniProt P12276); experiment: Inhibition of chicken liver FASN ketoreductase activity
Fatty acid synthase [8] = target: T3, Fatty acid synthase; experiment: Inhibition of chicken liver FASN after 3 hrs
BGC-823 = experiment: Cytotoxicity against human BGC823 cells; format: functional, cell-based
[9] = Inhibition of duck liver FASN; set-up: species or system Anas platyrhynchos
ATP-citrate synthase [10] = target: T2, ATP-citrate synthase; experiment: Competitive inhibition of rat liver ACLY using ATP as substrate by spectrophotometric analysis
[11] = Inhibition of Escherichia coli FabB
Fatty acid synthase [12] = target: Fatty acid synthase (Rattus norvegicus, UniProt P12785); experiment: Inhibition of FASN in rat liver
Fatty acid synthase [13] = target: T1, Fatty acid synthase; experiment: Inhibition of FASN in human HepG2 cells; format: cell-based

T1 sequence (P49327 whole entry): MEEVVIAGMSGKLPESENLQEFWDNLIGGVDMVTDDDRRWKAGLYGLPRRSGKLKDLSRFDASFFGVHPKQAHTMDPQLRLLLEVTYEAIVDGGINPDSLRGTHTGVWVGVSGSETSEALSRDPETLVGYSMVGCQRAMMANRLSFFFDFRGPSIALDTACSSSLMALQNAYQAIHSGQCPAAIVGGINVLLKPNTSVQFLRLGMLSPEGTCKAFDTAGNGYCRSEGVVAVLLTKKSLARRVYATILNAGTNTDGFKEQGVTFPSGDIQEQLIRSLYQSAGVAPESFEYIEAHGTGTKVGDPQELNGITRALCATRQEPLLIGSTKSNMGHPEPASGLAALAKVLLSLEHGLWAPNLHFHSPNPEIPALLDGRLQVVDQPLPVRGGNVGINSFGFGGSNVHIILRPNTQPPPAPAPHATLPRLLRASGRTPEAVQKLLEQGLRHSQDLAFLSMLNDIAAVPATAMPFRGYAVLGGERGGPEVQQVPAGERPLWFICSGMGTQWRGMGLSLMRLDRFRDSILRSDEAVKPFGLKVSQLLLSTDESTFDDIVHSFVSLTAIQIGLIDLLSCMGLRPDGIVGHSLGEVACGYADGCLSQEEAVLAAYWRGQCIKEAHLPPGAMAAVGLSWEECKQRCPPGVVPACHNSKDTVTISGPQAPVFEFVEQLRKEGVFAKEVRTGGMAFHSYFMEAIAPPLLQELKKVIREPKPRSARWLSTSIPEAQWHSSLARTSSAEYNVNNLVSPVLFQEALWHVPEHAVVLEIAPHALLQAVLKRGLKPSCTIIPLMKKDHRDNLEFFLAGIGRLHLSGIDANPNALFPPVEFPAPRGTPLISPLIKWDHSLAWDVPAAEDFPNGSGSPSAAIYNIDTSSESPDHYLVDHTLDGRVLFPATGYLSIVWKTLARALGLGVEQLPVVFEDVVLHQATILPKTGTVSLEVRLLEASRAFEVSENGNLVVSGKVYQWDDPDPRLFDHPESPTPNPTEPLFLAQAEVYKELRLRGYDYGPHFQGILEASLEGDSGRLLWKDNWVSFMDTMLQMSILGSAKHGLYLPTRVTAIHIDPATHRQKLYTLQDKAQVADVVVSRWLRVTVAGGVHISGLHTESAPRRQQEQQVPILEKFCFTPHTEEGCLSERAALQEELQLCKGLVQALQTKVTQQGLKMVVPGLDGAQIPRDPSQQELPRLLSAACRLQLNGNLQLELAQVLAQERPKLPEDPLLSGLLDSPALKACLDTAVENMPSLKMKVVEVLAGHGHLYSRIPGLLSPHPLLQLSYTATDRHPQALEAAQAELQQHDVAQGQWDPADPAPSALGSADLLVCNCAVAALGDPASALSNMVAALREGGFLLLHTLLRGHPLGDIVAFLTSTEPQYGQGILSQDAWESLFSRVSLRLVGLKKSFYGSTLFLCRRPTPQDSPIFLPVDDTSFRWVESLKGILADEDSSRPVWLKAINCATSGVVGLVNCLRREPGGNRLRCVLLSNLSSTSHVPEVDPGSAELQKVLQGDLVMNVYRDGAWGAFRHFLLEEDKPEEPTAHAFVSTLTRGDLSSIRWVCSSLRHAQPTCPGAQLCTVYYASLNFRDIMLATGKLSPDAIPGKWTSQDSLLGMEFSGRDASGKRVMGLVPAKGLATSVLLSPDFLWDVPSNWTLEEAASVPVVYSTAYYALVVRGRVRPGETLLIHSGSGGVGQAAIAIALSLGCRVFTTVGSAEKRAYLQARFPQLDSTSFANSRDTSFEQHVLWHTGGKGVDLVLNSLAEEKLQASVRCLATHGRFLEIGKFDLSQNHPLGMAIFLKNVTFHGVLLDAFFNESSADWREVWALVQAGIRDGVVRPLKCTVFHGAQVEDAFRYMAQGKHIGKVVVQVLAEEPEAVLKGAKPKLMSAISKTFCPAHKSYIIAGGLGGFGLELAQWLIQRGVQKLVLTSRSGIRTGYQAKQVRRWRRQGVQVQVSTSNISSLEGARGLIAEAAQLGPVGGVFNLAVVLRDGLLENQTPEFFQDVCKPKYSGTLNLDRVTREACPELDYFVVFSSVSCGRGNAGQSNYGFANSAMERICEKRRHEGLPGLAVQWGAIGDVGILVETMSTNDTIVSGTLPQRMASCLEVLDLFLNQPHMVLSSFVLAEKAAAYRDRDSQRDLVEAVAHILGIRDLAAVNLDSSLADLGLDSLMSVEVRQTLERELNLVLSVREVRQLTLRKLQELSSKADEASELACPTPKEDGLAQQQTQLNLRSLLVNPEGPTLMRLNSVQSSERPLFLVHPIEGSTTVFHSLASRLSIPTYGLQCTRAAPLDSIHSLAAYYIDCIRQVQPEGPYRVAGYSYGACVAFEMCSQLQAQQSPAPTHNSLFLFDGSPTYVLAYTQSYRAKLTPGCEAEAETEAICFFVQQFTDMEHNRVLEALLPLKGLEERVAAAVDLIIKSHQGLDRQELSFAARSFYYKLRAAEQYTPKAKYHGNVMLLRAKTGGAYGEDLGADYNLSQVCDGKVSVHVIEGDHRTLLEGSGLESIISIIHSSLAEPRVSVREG
T3 sequence (P12276 whole entry): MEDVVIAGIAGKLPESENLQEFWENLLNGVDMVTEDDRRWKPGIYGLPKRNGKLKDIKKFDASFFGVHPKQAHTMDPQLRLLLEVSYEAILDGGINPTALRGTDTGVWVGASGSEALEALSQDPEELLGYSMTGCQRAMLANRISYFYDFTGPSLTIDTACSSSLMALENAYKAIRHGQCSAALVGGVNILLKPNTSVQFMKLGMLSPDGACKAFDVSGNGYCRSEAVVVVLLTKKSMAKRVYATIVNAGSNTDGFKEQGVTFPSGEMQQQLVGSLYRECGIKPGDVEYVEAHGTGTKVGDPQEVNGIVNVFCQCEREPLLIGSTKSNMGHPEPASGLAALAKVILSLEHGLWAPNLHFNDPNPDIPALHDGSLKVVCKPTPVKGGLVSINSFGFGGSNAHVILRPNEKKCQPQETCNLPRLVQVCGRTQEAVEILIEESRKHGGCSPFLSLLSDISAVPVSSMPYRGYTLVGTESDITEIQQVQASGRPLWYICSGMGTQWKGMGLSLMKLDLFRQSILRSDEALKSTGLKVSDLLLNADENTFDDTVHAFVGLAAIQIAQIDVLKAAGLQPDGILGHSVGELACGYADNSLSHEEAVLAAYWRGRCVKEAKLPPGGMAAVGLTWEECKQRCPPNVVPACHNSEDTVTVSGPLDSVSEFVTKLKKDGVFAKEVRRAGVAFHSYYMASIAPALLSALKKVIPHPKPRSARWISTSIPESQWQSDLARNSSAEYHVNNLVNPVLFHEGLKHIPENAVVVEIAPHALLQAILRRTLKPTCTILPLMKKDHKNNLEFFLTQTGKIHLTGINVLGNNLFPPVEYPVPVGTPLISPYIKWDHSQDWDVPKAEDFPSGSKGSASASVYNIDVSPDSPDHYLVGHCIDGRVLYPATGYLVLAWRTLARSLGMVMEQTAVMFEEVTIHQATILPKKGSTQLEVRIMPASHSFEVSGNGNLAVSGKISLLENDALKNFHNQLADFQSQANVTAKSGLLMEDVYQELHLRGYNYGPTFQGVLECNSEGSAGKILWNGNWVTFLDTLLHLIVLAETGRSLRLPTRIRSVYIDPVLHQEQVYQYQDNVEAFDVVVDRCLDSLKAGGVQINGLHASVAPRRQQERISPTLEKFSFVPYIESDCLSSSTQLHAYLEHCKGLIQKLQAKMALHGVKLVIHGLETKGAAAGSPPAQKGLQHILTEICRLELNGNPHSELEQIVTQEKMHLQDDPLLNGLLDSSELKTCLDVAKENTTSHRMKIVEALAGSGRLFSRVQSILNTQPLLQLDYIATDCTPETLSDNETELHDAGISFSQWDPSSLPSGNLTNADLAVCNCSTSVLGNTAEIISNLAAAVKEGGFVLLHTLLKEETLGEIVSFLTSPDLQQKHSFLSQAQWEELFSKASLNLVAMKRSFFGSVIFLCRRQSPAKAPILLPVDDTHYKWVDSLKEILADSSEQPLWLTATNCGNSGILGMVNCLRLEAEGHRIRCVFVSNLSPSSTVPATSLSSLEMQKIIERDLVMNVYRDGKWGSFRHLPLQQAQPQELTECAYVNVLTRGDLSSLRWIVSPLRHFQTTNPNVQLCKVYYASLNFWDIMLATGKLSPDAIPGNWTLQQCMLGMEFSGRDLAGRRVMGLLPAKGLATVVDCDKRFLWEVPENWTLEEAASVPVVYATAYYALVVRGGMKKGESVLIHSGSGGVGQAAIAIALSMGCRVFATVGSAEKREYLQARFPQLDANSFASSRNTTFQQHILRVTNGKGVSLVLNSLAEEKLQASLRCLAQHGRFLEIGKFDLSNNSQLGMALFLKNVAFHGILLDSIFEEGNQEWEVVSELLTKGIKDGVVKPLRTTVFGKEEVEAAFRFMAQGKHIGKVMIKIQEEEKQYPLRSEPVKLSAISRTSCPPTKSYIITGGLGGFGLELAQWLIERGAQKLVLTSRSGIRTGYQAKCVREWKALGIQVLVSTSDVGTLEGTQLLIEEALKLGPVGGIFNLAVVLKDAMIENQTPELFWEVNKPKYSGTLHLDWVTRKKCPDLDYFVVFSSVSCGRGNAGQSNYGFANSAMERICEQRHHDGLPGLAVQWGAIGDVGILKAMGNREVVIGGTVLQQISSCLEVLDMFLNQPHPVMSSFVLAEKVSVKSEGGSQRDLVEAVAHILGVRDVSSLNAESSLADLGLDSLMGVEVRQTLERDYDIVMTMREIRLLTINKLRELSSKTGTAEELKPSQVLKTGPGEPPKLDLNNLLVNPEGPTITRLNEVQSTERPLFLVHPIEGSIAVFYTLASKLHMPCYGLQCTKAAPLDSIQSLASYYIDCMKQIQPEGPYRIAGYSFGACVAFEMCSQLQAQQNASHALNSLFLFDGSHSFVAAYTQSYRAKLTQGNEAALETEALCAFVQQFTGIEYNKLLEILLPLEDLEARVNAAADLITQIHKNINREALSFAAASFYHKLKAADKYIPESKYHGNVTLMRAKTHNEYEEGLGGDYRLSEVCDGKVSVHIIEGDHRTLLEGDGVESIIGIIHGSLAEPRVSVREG

`CCCCC/C=C\C=C\CCCCCCCCC(=O)O` gave an IC50 (Fatty acid synthase [1]) of 100 µM.

Work on `Cc1ccnc(NS(=O)(=O)c2ccc(NC(=O)Nc3ccc(S(=O)(=O)Nc4nccc(C)n4)cc3)cc2)n1` yielded an IC50 (Fatty acid synthase [2]) of 0.0158 µM.

In the case of `CC(C)Oc1ccc(C2=NC(CSc3nc4ncccc4o3)CO2)cc1` (configuration not stated), the IC50 (Acetyl-CoA carboxylase 2) is reported as 2.8 µM and the IC50 (Acetyl-CoA carboxylase 1) is reported as greater than 100 µM.

`O=C1O[C@@H](CCc2ccccc2)[C@H]1Cc1ccccc1` gave a Ki (Fatty acid synthase [3]) of 2.5 µM.

In the case of `CC(C)(CCCCCCCCCCC(C)(C)CC(=O)O)CC(=O)O`, the Ki (ATP-citrate synthase [4]) is reported as 3 µM, the Ki [5] is reported as 70 µM and the Ki (ATP-citrate synthase [6]) is reported as 16 µM.

Work on `O=C(O[C@@H]1Cc2c(O)cc(O)cc2O[C@@H]1c1ccc(O)c(O)c1)c1cc(O)c(O)c(O)c1` [EPICATECHIN GALLATE] yielded an IC50 (Fatty acid synthase [7]) of 68 µM and an IC50 (Fatty acid synthase [8]) of 42 µM.

`O=C(O[C@H]1O[C@@H]2COc3c(c4cc(O)c(O)c(O)c4c4c(O)c(O)c(O)cc34)O[C@H]2[C@H](OC(=O)c2cc(O)c(O)c(O)c2)[C@H]1OC(=O)c1cc(O)c(O)c(O)c1)c1cc(O)c(O)c(Oc2c(C(=O)O[C@@H]3O[C@@H]4COC(=O)c5cc(O)c(O)c(O)c5-c5c(cc(O)c(O)c5O)C(=O)O[C@H]4[C@@H]4OC(=O)c5cc(O)c(O)c(O)c5-c5c(cc(O)c(O)c5O)C(=O)O[C@@H]34)cc(O)c(O)c2O)c1` [GEMIN A] gave an IC50 (BGC-823) of 40.4 µM and an IC50 [9] of 0.21 µM.

`C[C@@H]1C[C@H]2O[C@@H]2/C=C\C=C\C(=O)Cc2c(Cl)c(O)cc(O)c2C(=O)O1` [RADICICOL] gave a Ki (ATP-citrate synthase [6]) of 13 µM and a Ki (ATP-citrate synthase [10]) of 7 µM.

With `C=C/C(C)=C/[C@@]1(C)SC(=O)C(C)=C1O` [THIOLACTOMYCIN] the IC50 [11] was 1.9 µM, the IC50 (Fatty acid synthase [12]) was greater than 951 µM and the IC50 (Fatty acid synthase [13]) was greater than 380 µM.
